Earlier results on one compound are cited in publication PMC12844998, “Bridging the Knowledge Gap in Harmaline’s Pharmacological Properties: A Focus on Thermodynamics and Kinetics” (Pharmaceutics, 2025).

The logP is the decadic logarithm of the partition coefficient of the neutral form, usually between octanol and water.

For the data set the following is noted: source not stated; cited from earlier work.

In the case of `CCCCCC` [Hex, n-Hexane], the logP is listed as 3.5.
